Patent publication US20220054541A1, “METHOD FOR TREATING INFLAMMATORY BOWEL DISEASES” (NovMetaPharma Co., Ltd., priority 2020, published 2022)
“Also recorded” adds a separate entry of the source.

Key:
[1] = tested on: muscle tissues and intestinal segments; settings: cited from earlier work
[2] = tested on: DSS-induced colitis model mice; experiment: DSS-induced colitis model mice (body weight, disease score, survival, colon length, histology); assay type: in vivo, Male C57BL/6J Jms Slc mice
Method: Male C57BL/6J Jms Slc mice (8-week old) were fed with 4% dextran sulfate sodium (DSS) in water in place of drinking water for 9 days, followed by feeding drinking water for 3 days, inducing colitis in the mice. Mice were divided into three groups: (1) CRP40 group administered orally with CHP monohydrate (40 mg/kg body weight/day); (2) CycloZ40 group administered orally with a combination of CHP monohydrate 40 mg/kg+Zn gluconate 70 mg/kg; and (3) vehicle (control) group fed with drinking water. CHP hydrate and combination of CHP hydrate+Zn gluconate were administered to the animals starting from 3 days prior to the DSS administration and continued for 12 days until the animals were sacrificed. The above amount of the CHP monohydrate and the combination of CHP monohydrate and Zn gluconate were administered daily.
At day 12, the animals were sacrificed and their colon lengths were measured.
The intestinal tissues were fixed, paraffin-embedded, and stained with hematoxylin and eosin.
Histopathological evaluation of colon was scored according to the grading system listed below.

[3] = pKa of CHP hydrate material; assay type: physicochemical

SMILES | zinc absorption and uptake [1] | protection of intestine ([2]; CHP alone 40 mg/kg/day as monohydrate compared with combination of CHP 40 mg/kg/day and Zn 70 mg/kg as zinc gluconate) | pKa [3] | histological scores ([2]; DSS-induced colitis mice, compared with control (vehicle) group) | histological examination of intestinal tissue (H&E) ([2]; DSS-induced colitis mice, epithelial lining, submucosa thickness, lymphatic infiltration, compared with vehicle group) | survival rate ([2]; DSS-induced colitis mice, experimental period of 14 days, CHP monohydrate 40 mg/kg/day, or plus Zn gluconate 70 mg/kg, about 70% of vehicle group died) | weight loss (body weight changes) ([2]; DSS-induced colitis mice, oral daily CHP monohydrate 40 mg/kg/day, day 12, compared with CycloZ40 and vehicle groups) | disease score (disease activity: weight loss, stool consistency, blood) ([2]; DSS-induced colitis mice, oral daily CHP monohydrate 40 mg/kg/day, day 12, compared with CycloZ40 and vehicle groups, monohydrate) | colon length ([2]; DSS-induced colitis mice, sacrificed at day 12, compared with vehicle and CycloZ40 groups)
O=C1N[C@@H](Cc2cnc[nH]2)C(=O)N2CCC[C@@H]12 [CHP, Cyclo(-His-Pro)] | enhanced zinc absorption and uptake | greater protection of intestine | – | – | – | – | – | – | –
O=C1N[C@@H](Cc2cnc[nH]2)C(=O)N2CCC[C@@H]12 [CRP40, CHP monohydrate] | – | – | ~6.4 | histologically more resistant to intestinal inflammation | protected from intestinal tissue damage | survived until the end of the experiment | the least | greatly improved; also recorded: the lowest | longest
